Assay results published in patent publication US11332498B2, “Ligands for integrin αVβ8, synthesis and uses thereof” (Technische Universitat Munchen, priority 2017, dated 2022).
Where two headings read alike, the source gives them in different places. Where a SMILES comes first, the peptide text is derived from it. Bridges are numbered along the chain shown (N, C = ends). Roman numbers before positions name the chains, in order. Side-chain parts run from the residue outwards. [ ]: non-standard residue; d: D form. The star is where a group is joined. BODIPY(FL) = CC1=CC(C)=[N+]2C1=Cc1ccc(CCC(=O)*)n1[B-]2(F)F; NMeK = CN[C@@H](CCCCN)C(=O)O; Ahx = NCCCCCC(=O)O

What was measured:
[1] = target: αvβ5 (Homo sapiens, UniProt P06756+P18084); assay: solid-phase integrin binding assay, αvβ5
αvβ5, sequence (P06756 31-889 limits assumed): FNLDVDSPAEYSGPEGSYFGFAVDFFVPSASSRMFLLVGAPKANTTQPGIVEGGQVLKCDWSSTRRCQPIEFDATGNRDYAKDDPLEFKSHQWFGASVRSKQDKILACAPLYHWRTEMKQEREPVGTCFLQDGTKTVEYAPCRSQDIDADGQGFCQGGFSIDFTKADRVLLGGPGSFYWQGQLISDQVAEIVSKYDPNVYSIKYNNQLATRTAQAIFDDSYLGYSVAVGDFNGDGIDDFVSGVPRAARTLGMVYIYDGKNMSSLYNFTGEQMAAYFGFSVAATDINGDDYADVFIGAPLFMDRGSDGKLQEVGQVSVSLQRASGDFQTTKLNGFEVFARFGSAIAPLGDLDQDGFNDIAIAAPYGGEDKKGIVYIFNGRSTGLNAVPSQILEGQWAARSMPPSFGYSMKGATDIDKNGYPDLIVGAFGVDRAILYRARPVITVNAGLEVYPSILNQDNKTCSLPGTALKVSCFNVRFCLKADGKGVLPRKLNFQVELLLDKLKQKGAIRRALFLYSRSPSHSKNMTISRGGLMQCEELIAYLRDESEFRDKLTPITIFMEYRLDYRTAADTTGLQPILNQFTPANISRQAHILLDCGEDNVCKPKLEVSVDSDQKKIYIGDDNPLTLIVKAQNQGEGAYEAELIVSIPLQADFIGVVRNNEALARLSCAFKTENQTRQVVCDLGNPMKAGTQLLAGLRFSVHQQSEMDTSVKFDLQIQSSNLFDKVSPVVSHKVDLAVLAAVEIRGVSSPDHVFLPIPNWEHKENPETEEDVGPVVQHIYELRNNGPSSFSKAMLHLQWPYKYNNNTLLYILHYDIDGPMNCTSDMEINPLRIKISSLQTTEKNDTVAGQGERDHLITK
αvβ5, sequence (P06756 891-1048 partner limits assumed): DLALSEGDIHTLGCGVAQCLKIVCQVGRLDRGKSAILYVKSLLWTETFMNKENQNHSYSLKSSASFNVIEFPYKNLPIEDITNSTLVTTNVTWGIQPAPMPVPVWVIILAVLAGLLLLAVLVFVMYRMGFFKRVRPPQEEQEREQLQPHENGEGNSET
αvβ5, sequence (P18084 24-799): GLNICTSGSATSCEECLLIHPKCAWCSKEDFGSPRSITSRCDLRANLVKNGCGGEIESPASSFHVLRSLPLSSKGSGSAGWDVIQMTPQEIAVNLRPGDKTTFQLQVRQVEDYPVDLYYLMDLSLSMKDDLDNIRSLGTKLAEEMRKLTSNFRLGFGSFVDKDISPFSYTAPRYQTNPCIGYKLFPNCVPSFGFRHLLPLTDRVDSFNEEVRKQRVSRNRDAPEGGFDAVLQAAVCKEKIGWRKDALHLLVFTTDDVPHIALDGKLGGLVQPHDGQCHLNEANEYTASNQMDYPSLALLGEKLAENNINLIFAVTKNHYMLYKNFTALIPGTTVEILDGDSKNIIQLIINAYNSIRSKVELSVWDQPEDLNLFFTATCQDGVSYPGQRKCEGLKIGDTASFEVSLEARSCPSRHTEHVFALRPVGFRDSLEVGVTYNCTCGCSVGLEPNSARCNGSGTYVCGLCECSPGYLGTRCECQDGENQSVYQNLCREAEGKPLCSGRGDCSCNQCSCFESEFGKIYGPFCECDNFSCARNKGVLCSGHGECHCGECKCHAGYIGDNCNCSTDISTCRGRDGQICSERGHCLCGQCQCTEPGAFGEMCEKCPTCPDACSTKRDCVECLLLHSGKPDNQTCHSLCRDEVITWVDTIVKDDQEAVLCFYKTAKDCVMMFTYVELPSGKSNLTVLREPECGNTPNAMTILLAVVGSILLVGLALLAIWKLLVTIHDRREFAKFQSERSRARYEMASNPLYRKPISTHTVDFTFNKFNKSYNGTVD
Description: (§1) The activity and selectivity of integrin ligands were determined by a solid-phase binding assay according to the previously reported protocols using coated extracellular matrix proteins and soluble integrins: Fibronectin (Fn) for α5β1, latent activating protein (LAP) for αvβ6 and αvβ8, Vitronectin (Vn) for αvβ3 and αvβ5, Fibrinogen (Fbg) for αIIbβ3.

[2] = target: α5β1 (Homo sapiens, UniProt P05556+P08648); assay: solid-phase integrin binding assay, α5β1
Description: as §1

[3] = target: αvβ6 (Homo sapiens, UniProt P06756+P18564); assay: solid-phase integrin binding assay, αvβ6
αvβ6, sequence (P06756 31-889 limits assumed): as the sequence (P06756 31-889 limits assumed) above
αvβ6, sequence (P06756 891-992 partner limits assumed): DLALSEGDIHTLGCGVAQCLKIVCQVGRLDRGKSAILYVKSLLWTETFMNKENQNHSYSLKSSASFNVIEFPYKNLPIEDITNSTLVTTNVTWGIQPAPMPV
αvβ6, sequence (P18564 22-707 limits assumed): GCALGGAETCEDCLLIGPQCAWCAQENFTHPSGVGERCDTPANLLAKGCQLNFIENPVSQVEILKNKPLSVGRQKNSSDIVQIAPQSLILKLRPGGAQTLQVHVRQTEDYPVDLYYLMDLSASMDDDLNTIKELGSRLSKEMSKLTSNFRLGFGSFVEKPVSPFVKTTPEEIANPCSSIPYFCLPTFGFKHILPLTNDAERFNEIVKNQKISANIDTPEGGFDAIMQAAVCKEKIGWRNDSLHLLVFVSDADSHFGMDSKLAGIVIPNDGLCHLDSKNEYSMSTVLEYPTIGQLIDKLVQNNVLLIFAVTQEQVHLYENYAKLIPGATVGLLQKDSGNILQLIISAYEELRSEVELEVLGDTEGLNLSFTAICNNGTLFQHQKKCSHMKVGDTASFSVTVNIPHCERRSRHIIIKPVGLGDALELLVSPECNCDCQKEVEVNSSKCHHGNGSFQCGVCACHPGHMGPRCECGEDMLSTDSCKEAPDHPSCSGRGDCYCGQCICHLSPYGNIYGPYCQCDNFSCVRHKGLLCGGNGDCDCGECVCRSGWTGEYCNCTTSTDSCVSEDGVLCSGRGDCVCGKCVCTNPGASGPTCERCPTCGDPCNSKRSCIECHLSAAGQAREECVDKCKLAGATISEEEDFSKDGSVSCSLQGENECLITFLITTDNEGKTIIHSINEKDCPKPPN
Description: as §1

[4] = target: αvβ8 (Homo sapiens, UniProt P06756+P26012); assay: solid-phase integrin binding assay, αvβ8; conditions: for IC50: Table 1, coated LAP, soluble integrin, read-out: αvβ8 [nM] (integrin binding affinity)
αvβ8, sequence (P06756 31-889 limits assumed): as the sequence (P06756 31-889 limits assumed) above
αvβ8, sequence (P06756 891-992 partner limits assumed): as the sequence (P06756 891-992 partner limits assumed) above
αvβ8, sequence (P26012 43-684 limits assumed): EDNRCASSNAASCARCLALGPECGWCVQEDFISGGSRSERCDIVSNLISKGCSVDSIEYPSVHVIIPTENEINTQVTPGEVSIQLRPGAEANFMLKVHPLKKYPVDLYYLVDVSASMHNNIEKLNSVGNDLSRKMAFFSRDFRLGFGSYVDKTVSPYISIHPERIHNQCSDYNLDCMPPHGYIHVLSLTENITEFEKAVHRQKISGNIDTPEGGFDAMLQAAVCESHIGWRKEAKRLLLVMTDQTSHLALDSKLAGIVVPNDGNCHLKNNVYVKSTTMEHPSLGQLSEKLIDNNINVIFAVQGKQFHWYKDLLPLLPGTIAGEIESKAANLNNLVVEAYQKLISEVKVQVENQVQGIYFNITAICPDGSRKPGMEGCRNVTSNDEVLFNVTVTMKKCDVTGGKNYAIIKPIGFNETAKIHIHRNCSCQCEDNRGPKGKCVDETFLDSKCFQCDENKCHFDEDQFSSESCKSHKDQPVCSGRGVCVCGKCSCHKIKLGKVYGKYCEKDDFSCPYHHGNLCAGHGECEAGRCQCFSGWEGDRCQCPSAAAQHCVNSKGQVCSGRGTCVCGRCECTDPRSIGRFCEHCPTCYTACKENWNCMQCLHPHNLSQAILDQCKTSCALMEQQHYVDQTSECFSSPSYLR

[5] = target: αvβ3 (Homo sapiens, UniProt P05106+P06756); assay: solid-phase integrin binding assay, αvβ3; conditions: Table 2; coated Vitronectin
αvβ3, sequence (P06756 31-889 limits assumed): as the sequence (P06756 31-889 limits assumed) above
αvβ3, sequence (P06756 891-992 partner limits assumed): as the sequence (P06756 891-992 partner limits assumed) above
αvβ3, sequence (P05106 27-718 limits assumed): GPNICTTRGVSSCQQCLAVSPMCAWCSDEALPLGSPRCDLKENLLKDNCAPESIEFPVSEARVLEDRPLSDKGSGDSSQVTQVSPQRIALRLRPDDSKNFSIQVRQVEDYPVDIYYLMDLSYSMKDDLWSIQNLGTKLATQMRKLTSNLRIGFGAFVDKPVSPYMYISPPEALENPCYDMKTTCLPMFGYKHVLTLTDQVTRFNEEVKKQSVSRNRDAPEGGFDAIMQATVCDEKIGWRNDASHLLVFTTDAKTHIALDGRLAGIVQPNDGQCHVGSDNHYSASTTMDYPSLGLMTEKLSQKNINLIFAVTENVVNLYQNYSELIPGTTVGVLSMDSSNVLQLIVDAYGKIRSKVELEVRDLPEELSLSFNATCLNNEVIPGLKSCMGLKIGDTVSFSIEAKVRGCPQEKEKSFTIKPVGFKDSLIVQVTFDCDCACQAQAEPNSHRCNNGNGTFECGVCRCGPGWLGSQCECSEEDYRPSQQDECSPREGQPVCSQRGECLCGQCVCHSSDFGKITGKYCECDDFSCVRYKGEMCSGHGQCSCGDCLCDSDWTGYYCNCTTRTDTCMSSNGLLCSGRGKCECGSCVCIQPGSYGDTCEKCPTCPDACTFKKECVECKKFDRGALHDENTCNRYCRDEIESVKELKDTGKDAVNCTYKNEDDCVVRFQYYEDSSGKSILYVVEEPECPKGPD
Description: as §1

[6] = target: αIIbβ3 (Homo sapiens, UniProt P05106+P08514); assay: solid-phase integrin binding assay, αIIbβ3; conditions: Table 2; coated Fibrinogen
Description: as §1

[7] = Table 3, BDPFL-labelled compounds and comparatives
[8] = Table 1, coated LAP, soluble integrin, read-out: αvβ6 [nM] (integrin binding affinity)

Row | Structure (SMILES) | IC50 [1, 7] [µM] | IC50 [4] [nM] | IC50 [3, 8] [nM] | other results
1 | Cc1cc(C)n2c1C=C1C=CC(CCC(=O)NCCCC[C@H]3C(=O)NCC(=O)N[C@@H](CC(C)C)C(=O)N[C@@H](CCCNC(=N)N)C(=O)NCC(=O)N[C@@H](CC(=O)O)C(=O)N[C@@H](CC(C)C)C(=O)N4CCC[C@@H]4C(=O)N3C)=[N+]1[B-]2(F)F [Compound 9a, 9-BDPFL] (cyclo(RGDL[dP][NMeK](BODIPY(FL))GL)) | > 10 | – | – | –
2 | CC1=CC(C)=[N+]2C1=Cc1ccc(CCC(=O)NCCCCCC(=O)NCCCC[C@H]3C(=O)NCC(=O)N[C@@H](CC(C)C)C(=O)N[C@@H](CCCNC(=N)N)C(=O)NCC(=O)N[C@@H](CC(=O)O)C(=O)N[C@@H](CC(C)C)C(=O)N4CCC[C@@H]4C(=O)N3C)n1[B-]2(F)F [Compound 9b, 9-Ahx-BDPFL] (cyclo(RGDL[dP][NMeK]([Ahx-BODIPY(FL)])GL)) | > 10 | – | – | IC50 [2, 7]: > 1 µM
3 | Cc1cc(C)n2c1C=C1C=CC(CCC(=O)NCC(=O)N3CCC[C@H]3C(=O)N3CCC[C@H]3C(=O)N3CCC[C@H]3C(=O)NCC(=O)NCCCC[C@H]3C(=O)NCC(=O)N[C@@H](CC(C)C)C(=O)N[C@@H](CCCNC(=N)N)C(=O)NCC(=O)N[C@@H](CC(=O)O)C(=O)N[C@@H](CC(C)C)C(=O)N4CCC[C@@H]4C(=O)N3C)=[N+]1[B-]2(F)F [Compound 9e, 9-G(P)3G-BDPFL] (I: cyclo(RGDL[dP][NMeK]GL) / II: {BODIPY(FL)}-GPPPG; amide I:6-II:C) | > 10 | – | – | IC50 ([3]; Table 3, BDPFL-labelled compounds and comparatives, read-out: αvβ6, IC50): 247 nM
4 | Cc1cc(C)n2c1C=C1C=CC(CCC(=O)NCC(=O)N3CCC[C@H]3C(=O)N3CCC[C@H]3C(=O)N3CCC[C@H]3C(=O)N3CCC[C@H]3C(=O)N3CCC[C@H]3C(=O)N3CCC[C@H]3C(=O)NCC(=O)NCCCC[C@H]3C(=O)NCC(=O)N[C@@H](CC(C)C)C(=O)N[C@@H](CCCNC(=N)N)C(=O)NCC(=O)N[C@@H](CC(=O)O)C(=O)N[C@@H](CC(C)C)C(=O)N4CCC[C@@H]4C(=O)N3C)=[N+]1[B-]2(F)F [Compound 9f, 9-G(P)6G-BDPFL] (I: {BODIPY(FL)}-GPPPPPPG / II: cyclo(RGDL[dP][NMeK]GL); amide I:C-II:6) | > 10 | – | – | binding activity to αvβ8 (in words) ([4]; comparison with compound 9, comment on Table 3): reduced binding activity
5 | CC(C)C[C@@H]1NC(=O)CNC(=O)[C@@H]2CCCN2C(=O)[C@H]2CCCN2C(=O)[C@H](CC(C)C)NC(=O)[C@H](CC(=O)O)NC(=O)CNC(=O)[C@H](CCCNC(=N)N)NC1=O [compound 2, Cyclo-(Arg-Gly-Asp-Leu-D-Pro-Pro-Gly-Leu)] (cyclo(RGDL[dP]PGL)) | – | 0.93 | 210 | –
6 | CC(C)C[C@@H]1NC(=O)CNC(=O)[C@H](CCCCN)N(C)C(=O)[C@H]2CCCN2C(=O)[C@H](CC(C)C)NC(=O)[C@H](CC(=O)O)NC(=O)CNC(=O)[C@H](CCCNC(=N)N)NC1=O [compound 8, Cyclo-(Arg-Gly-Asp-Leu-D-Pro-(N-Me-Lys)-Gly-Leu)] (cyclo(RGDL[dP][NMeK]GL)) | – | 6.5 | 201 | IC50 [5]: > 1 µM; IC50 ([1]; Table 2, coated Vitronectin): > 1 µM; IC50 ([2]; Table 2, coated Fibronectin): > 1 µM; IC50 [6]: > 1 µM
7 | CC(=O)NCCCC[C@H]1C(=O)NCC(=O)N[C@@H](CC(C)C)C(=O)N[C@@H](CCCNC(=N)N)C(=O)NCC(=O)N[C@@H](CC(=O)O)C(=O)N[C@@H](CC(C)C)C(=O)N2CCC[C@@H]2C(=O)N1C [compound 9, Cyclo-(Arg-Gly-Asp-Leu-D-Pro-(N-Me-Lys(Ac))-Gly-Leu)] (cyclo(RGDL[dP][NMeK](Ac)GL)) | – | 6 | 201 | –
